# Assay results: the supplement of paper PMC10331698
# ± gives the standard deviation of the averaged measurements.
# Assays:
# Experiment in all cases: level (log10 ratio to DMSO vehicle control); higher = higher biomarker level / cell amount than vehicle control
# [1] = compound: O=S(=O)(OCC(F)(F)F)C(F)(F)C(F)(F)C(F)(F)C(F)(F)F [2,2,2-Trifluoroethyl perfluorobutanesulfonate]; details: in DMSO
# Protocol: (§1)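 BioMAP Diversity Plus panel of 12 human primary cell co-culture systems (3C, 4H, LPS, SAg, BT, BF4T, BE3C, CASM3C, HDF3CGF, KF3CT, MyoF, Mphg). Compounds were added 1 h before stimulation and left for 24 h (MyoF 48 h; BT 72 h for soluble read-outs or 6 d for IgG). Biomarkers were read by ELISA, cytotoxicity by SRB, PBMC viability and proliferation by Alamar Blue. Each well value was divided by the mean of 8 DMSO control wells on the same plate and log10 transformed; duplicate blinded samples were tested at 4 concentrations.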
# [2] = compound: FC(F)(F)COC(OCC(F)(F)F)OCC(F)(F)F [tris(Trifluoroethoxy)methane]; details: in DMSO
# Protocol: as §1
# [3] = compound: C=CC(=O)OCC(F)(F)C(F)(F)C(F)(F)C(F)(F)COC(=O)C=C [1H,1H,6H,6H-Perfluorohexane-1,6-diol diacrylate]; details: 6700 nM; in DMSO
# Protocol: as §1
# [4] = compound: C=CC(=O)OCC(F)(F)C(F)(F)C(F)(F)C(F)(F)C(F)(F)C(F)(F)C(F)(F)C(F)F [1H,1H,9H-Perfluorononyl acrylate]; details: in DMSO
# Protocol: as §1
# [5] = compound: FC(F)(F)C(F)(F)C(F)(F)C(F)(F)CCI [1H,1H,2H,2H-Perfluorohexyl iodide]; details: in DMSO
# Protocol: as §1
# [6] = compound: Cc1ccc(S(=O)(=O)OCC(F)(F)C(F)(F)C(F)(F)C(F)(F)C(F)(F)C(F)F)cc1 [1H,1H,7H-Perfluoroheptyl 4-methylbenzenesulfonate]; details: in DMSO
# Protocol: as §1
# [7] = compound: OCC(F)(F)C(F)(F)C(F)(F)C(F)(F)C(F)(F)C(F)(F)C(F)(F)C(F)(F)CO [1H,1H,10H,10H-Perfluorodecane-1,10-diol]; details: in DMSO
# Protocol: as §1
Test System,level (log10) ([1]; 6700 nM),level (log10) ([1]; 20000 nM),level (log10) ([1]; 60000 nM),level (log10) ([2]; 6700 nM),level (log10) ([2]; 20000 nM),level (log10) ([2]; 60000 nM),level (log10) [3],level (log10) ([4]; 6700 nM),level (log10) ([4]; 20000 nM),level (log10) ([4]; 60000 nM),level (log10) ([5]; 6700 nM),level (log10) ([5]; 20000 nM),level (log10) ([5]; 60000 nM),level (log10) ([6]; 6700 nM),level (log10) ([6]; 20000 nM),level (log10) ([6]; 60000 nM),level (log10) ([7]; 6700 nM),level (log10) ([7]; 20000 nM),level (log10) ([7]; 60000 nM)
lMphg:CCL2/MCP-1,-0.0115 ± 0.021,-0.0245 ± 0.022,-0.0405 ± 0.0035,-0.01 ± 0.023,0.0005 ± 0.011,0.018 ± 0.035,-0.04 ± 0.061,-0.009 ± 0.0099,-0.025 ± 0.021,-0.041 ± 0.055,-0.028 ± 0.042,-0.0285 ± 0.0021,0.008 ± 0.013,-0.033 ± 0.0014,-0.0345 ± 0.015,-0.0055 ± 0.026,-0.0125 ± 0.016,-0.0145 ± 0.005,-0.653
CASM3C:CXCL8/IL-8,0.0335 ± 0.0064,0.031 ± 0.048,0.024 ± 0.042,-0.008 ± 0.0042,-0.01 ± 0.016,0.0055 ± 0.03,-0.015 ± 0.0028,0.0175 ± 0.021,0.025 ± 0.0028,0.0415 ± 0.03,0.0105 ± 0.022,0.0145 ± 0.028,0.0255 ± 0.06,-0.0095 ± 0.015,-0.0055 ± 0.013,-0.002 ± 0.0099,-0.0275 ± 0.028,-0.048 ± 0.0099,-0.011
CASM3C:HLA-DR,0.0015 ± 0.0064,-0.0015 ± 0.0064,0.0125 ± 0.005,-0.0115 ± 0.0064,-0.007,-0.0135 ± 0.023,-0.008 ± 0.12,-0.0945 ± 0.044,-0.04 ± 0.071,0.021 ± 0.033,-0.012 ± 0.0085,-0.017 ± 0.02,0.0265 ± 0.081,-0.009 ± 0.0028,-0.021 ± 0.0014,-0.002 ± 0.0071,-0.0185 ± 0.0078,-0.0275 ± 0.0064,-0.065
lMphg:sIL-10,0.072 ± 0.0042,0.0465 ± 0.0035,-0.171 ± 0.052,-0.045 ± 0.075,-0.061 ± 0.037,-0.0855 ± 0.091,-0.067 ± 0.014,-0.0335 ± 0.015,0.0005 ± 0.0092,0.029 ± 0.033,-0.072 ± 0.047,-0.043 ± 0.03,-0.0495 ± 0.042,-0.194 ± 0.063,-0.0825 ± 0.14,-0.0155 ± 0.091,-0.0265 ± 0.06,-0.357 ± 0.27,-1.1
MyoF:Collagen IV,-0.0175 ± 0.044,-0.014 ± 0.038,0.0205 ± 0.056,-0.026 ± 0.0042,-0.027 ± 0.02,-0.0075 ± 0.03,-0.0715 ± 0.015,0.02 ± 0.0014,0.015 ± 0.024,0.0035 ± 0.021,0.011 ± 0.031,0.024 ± 0.017,0.021 ± 0.05,0.0145 ± 0.022,0.0265 ± 0.046,0.0665 ± 0.077,-0.0265 ± 0.0035,-0.013 ± 0.0071,0.156
CASM3C:CD106/VCAM-1,-0.027 ± 0.014,-0.038 ± 0.031,-0.042 ± 0.083,-0.0095 ± 0.005,-0.02 ± 0.0014,-0.025 ± 0.0057,-0.128 ± 0.02,-0.0885 ± 0.028,-0.0715 ± 0.07,-0.12 ± 0.067,-0.023 ± 0.016,-0.057 ± 0.0057,-0.031 ± 0.075,0.001 ± 0.0028,-0.011 ± 0.0014,0.0135 ± 0.005,0 ± 0.02,-0.0065 ± 0.025,-0.151
CASM3C:CCL2/MCP-1,-0.0155 ± 0.0035,-0.0105 ± 0.005,0.0065 ± 0.0035,0.001 ± 0.0042,-0.0005 ± 0.0064,0.0215 ± 0.035,-0.0195 ± 0.0064,-0.0125 ± 0.0035,-0.0095 ± 0.0092,-0.0075 ± 0.018,0.0045 ± 0.0021,-0.008 ± 0.0028,0.0235 ± 0.067,-0.0075 ± 0.0035,-0.02 ± 0.0057,0.011 ± 0.025,0 ± 0.0028,-0.027 ± 0.0028,0.02
HDF3CGF:MMP-1,0.0125 ± 0.0078,0.022 ± 0.0085,0.0405 ± 0.0092,-0.005 ± 0.0099,-0.005 ± 0.0014,0 ± 0.0085,0.0075 ± 0.0021,0.006 ± 0.0057,0.03 ± 0.0057,0.0375 ± 0.016,-0.001 ± 0.0014,0.0085 ± 0.0035,0.0145 ± 0.018,0.024 ± 0.0014,0.0535 ± 0.016,0.066 ± 0.0014,0.0025 ± 0.00071,0.005 ± 0.018,-0.299
